The source of these data is patent US10271540B2, “Medical fluid, a method of treatment and use of the fluid” (XVIVO PERFUSION AB, priority 2010, dated 2019).

The conditions of data set [1]: circulating in blood, metabolized by the liver; cited from earlier work.
For data set [2], the system named is alpha-1. Description: potency of alpha-1-agonist relative to noradrenaline. An excerpt: For example, phenylephrine is an alpha-1-agonist and may replace noradrenaline.

As to `CNCC(O)c1ccc(O)c(O)c1` (stereo not drawn) [adrenaline], the half-life result in data set [1] is “approximately a few minutes”.

Take `NC[C@H](O)c1ccc(O)c(O)c1` [noradrenaline]: the half-life result in data set [1] is on record as “approximately a few minutes”.

`CNC[C@H](O)c1cccc(O)c1` [phenylephrine]: the “times less potent than noradrenaline” value in data set [2] is given as “about 5 times”.
